Measurements published in PMC3044687, “The C-Terminal Domain of the Arabinosyltransferase Mycobacterium tuberculosis EmbC Is a Lectin-Like Carbohydrate Binding Module” (PLoS Pathogens, 2011).

Assays:
[1] = target: EmbC^CT (C-terminal domain of M. tuberculosis EmbC, residues 719–1094) (Mycobacterium tuberculosis, UniProt P9WNL5); assay: Solution binding assay by intrinsic tryptophan fluorescence, wild-type EmbC^CT; details: wild-type EmbC^CT 20 µM, 50 mM KH2PO4 pH 7.9, 300 mM NaCl; single site saturation fit
Description: Intrinsic tryptophan fluorescence (ITF) experiments were carried out using a PTI QuantaMaster 40 spectrofluorimeter, recording data with the FeliX32 software package (PTI, Birmingham, New Jersey, USA). The excitation wavelength was set to 294 nm and the fluorescence emission (Femission) was recorded between 300–400 nm for each ligand aliquot added to a 200 µl solution containing 20 µM EmbC^CT in 50 mM KH2PO4 (pH 7.9), 300 mM NaCl. […] The change in fluorescence emission (ΔFemission) was calculated by subtracting Femission (recorded 2 min after each ligand addition) from Femission^max, and the data was then plotted against ligand concentration, [L] (3 independent experiments). A plot of ΔFemission at λ = 338 nm vs. [L] was fitted to the saturation binding equation using GraphPad Prism software: [drawing 1]

[2] = tested on: Araf transferase (isolated mycobacterial membranes); details: incubated with [14C]-labelled Araf-donor DPA and isolated mycobacterial membranes; cited from earlier work

EmbC^CT (C-terminal domain of M. tuberculosis EmbC, residues 719–1094), sequence (P9WNL5 719-1094 limits assumed): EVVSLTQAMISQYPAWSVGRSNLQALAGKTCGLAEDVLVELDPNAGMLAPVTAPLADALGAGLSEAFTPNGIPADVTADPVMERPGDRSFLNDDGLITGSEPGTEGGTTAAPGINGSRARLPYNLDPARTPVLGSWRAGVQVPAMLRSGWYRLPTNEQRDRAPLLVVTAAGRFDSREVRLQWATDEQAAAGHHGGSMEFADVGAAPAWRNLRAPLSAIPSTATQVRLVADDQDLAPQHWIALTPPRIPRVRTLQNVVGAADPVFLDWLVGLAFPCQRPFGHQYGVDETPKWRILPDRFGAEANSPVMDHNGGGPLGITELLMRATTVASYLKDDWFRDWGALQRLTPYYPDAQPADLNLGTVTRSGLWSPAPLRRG

For `CCCCCCCCO[C@H]1O[C@H](CO[C@H]2O[C@H](CO[C@H]3O[C@H](CO[C@H]4O[C@H](CO[C@H]5O[C@H](CO)[C@@H](O)[C@@H]5O)[C@@H](O)[C@@H]4O)[C@@H](O)[C@@H]3O)[C@@H](O)[C@@H]2O)[C@@H](O)[C@@H]1O` [Ara(1→5)4Ara-O-C8, [α-D-Araf-(1→5)]4-α-D-Araf-O-(CH2)7CH3], the Fmax [1] was 0.157.
Work on `CCCCCCCCO[C@H]1O[C@H](CO[C@H]2O[C@H](CO[C@H]3O[C@H](CO)[C@@H](O)[C@@H]3O)[C@@H](O)[C@@H]2O)[C@@H](O)[C@@H]1O` [Ara(1→5)2Ara-O-C8, [α-D-Araf-(1→5)]2-α-D-Araf-O-(CH2)7CH3] yielded an Fmax [1] of 0.105 and a Kd [1] of 25.3 µM.
With `CO[C@H]1O[C@H](CO[C@H]2O[C@H](CO)[C@@H](O)[C@@H]2O)[C@@H](O)[C@@H]1O` [Ara(1→5)Ara-O-C1, α-D-Araf-(1→5)-α-D-Araf-O-CH3] the Fmax [1] was 0.26 and the Kd [1] was 11 µM.
In the case of `CCCCCCCCO[C@H]1O[C@H](CO[C@H]2O[C@H](CO)[C@@H](O)[C@@H]2O)[C@@H](O)[C@@H]1O` [Ara(1→5)Ara-O-C8, α-D-Araf-(1→5)-α-D-Araf-O-(CH2)7CH3], the Fmax [1] is listed as 0.22 and the “acceptor activity (in words)” value [2] is listed as “potent acceptor mimics”.
